# Measurements: ChEMBL document CHEMBL4257529, “Antifungal amphiphilic kanamycins: new life for an old drug” (Medchemcomm, 2018)
# Columns and labels:
# Type in all cases: functional
# [1] = test system: Fusarium graminearum; assay: Antifungal activity against Fusarium graminearum by microbroth dilution assay
# [2] = test system: Aspergillus flavus; assay: Antifungal activity against Aspergillus flavus after 12 to 18 hrs
# [3] = test system: Fusarium graminearum; assay: Antifungal activity against Fusarium graminearum after 12 to 18 hrs
# [4] = test system: Escherichia coli; assay: Antibacterial activity against Escherichia coli ATCC 25922 after 12 to 18 hrs
# [5] = test system: Staphylococcus aureus; assay: Antibacterial activity against Staphylococcus aureus ATCC 25923 after 12 to 18 hrs
# [6] = test system: Escherichia coli; assay: Antibacterial activity against Escherichia coli TG1 by microbroth dilution assay
# [7] = test system: Staphylococcus aureus; assay: Antibacterial activity against Staphylococcus aureus ATCC 25923 by microbroth dilution assay
# [8] = test system: Pseudomonas aeruginosa; assay: Antibacterial activity against Pseudomonas aeruginosa ATCC 27853 by microbroth dilution assay
# [9] = test system: Enterococcus faecalis; assay: Antibacterial activity against Enterococcus faecalis ATCC 29212 by microbroth dilution assay
# [10] = test system: Klebsiella pneumoniae; assay: Antibacterial activity against Klebsiella pneumoniae […] by microbroth dilution assay
# [11] = test system: Klebsiella pneumoniae; assay: Antibacterial activity against Klebsiella pneumoniae ATCC 700603 by microbroth dilution assay
# [12] = test system: Rhodotorula mucilaginosa; assay: Antifungal activity against Rhodotorula pilimanae by microbroth dilution assay
# [13] = test system: Candida albicans; assay: Antifungal activity against Candida albicans by microbroth dilution assay
# [14] = test system: Saccharomyces cerevisiae; assay: Antifungal activity against Saccharomyces cerevisiae W303 by microbroth dilution assay
# [15] = test system: Fusarium oxysporum; assay: Antifungal activity against Fusarium oxysporum by microbroth dilution assay
# [16] = test system: Cryptococcus neoformans; assay: Antifungal activity against Cryptococcus neoformans 90-26
# [17] = test system: Cryptococcus neoformans; assay: Antifungal activity against Cryptococcus neoformans H99; settings: var grubii H99
# [18] = test system: Cryptococcus neoformans; assay: Antifungal activity against Cryptococcus neoformans 94-2586
# [19] = test system: Clavispora lusitaniae; assay: Antifungal activity against Candida lusitaniae 95-767
# [20] = test system: Diutina rugosa; assay: Antifungal activity against Candida rugosa 95-967
# [21] = test system: Candida tropicalis; assay: Antifungal activity against Candida tropicalis 95-41
# [22] = test system: Candida albicans; assay: Antifungal activity against Candida albicans ATCC 10231
# [23] = test system: Candida albicans; assay: Antifungal activity against resistant Candida albicans ATCC 64124
# [24] = test system: Candida albicans; assay: Antifungal activity against sensitive Candida albicans MYA-2876
# [25] = test system: Candida albicans; assay: Antifungal activity against Candida albicans B-311
# [26] = test system: Candida albicans; assay: Antifungal activity against Candida albicans 94-2181
# [27] = test system: Candida parapsilosis; assay: Antifungal activity against resistant Candida parapsilosis; settings: Lodderomyces parapsilosis
# [28] = test system: Candida parapsilosis; assay: Antifungal activity against sensitive Candida parapsilosis; settings: Lodderomyces parapsilosis
# [29] = test system: Fusarium graminearum; assay: Antifungal activity against Fusarium graminearum B4-5A strain A after 48 hrs by microdilution assay
# [30] = test system: Fusarium graminearum; assay: Antifungal activity against Fusarium graminearum B4-5A strain B after 48 hrs by microdilution assay
# [31] = test system: Fusarium graminearum; assay: Antifungal activity against Fusarium graminearum B4-5A strain C after 48 hrs by microdilution assay
# [32] = test system: Fusarium graminearum; assay: Antifungal activity against Fusarium graminearum B4-5A strain D after 48 hrs by microdilution assay
# [33] = test system: Fusarium graminearum; assay: Antifungal activity against Fusarium graminearum B4-5A strain E after 48 hrs by microdilution assay
# [34] = test system: Kluyveromyces marxianus; assay: Antifungal activity against Candida pseudotropicalis YOGI
# [35] = test system: Aspergillus flavus; assay: Antifungal activity against Aspergillus flavus
# [36] = test system: Escherichia coli; assay: Antibacterial activity against Escherichia coli TG1
# [37] = test system: Staphylococcus aureus; assay: Antibacterial activity against Staphylococcus aureus ATCC 25923
# [38] = test system: Micrococcus luteus; assay: Antibacterial activity against Micrococcus luteus ATCC 10240
# [39] = test system: Fusarium graminearum; assay: Antifungal activity against Fusarium graminearum B-4-5A
# [40] = test system: Fusarium oxysporum; assay: Antifungal activity against Fusarium oxysporum
# [41] = test system: Aspergillus niger; assay: Antifungal activity against Aspergillus niger
# [42] = test system: Fusarium graminearum; assay: Antifungal activity against Fusarium graminearum infected in wheat plant assessed as contamination of wheat heads and kernels with deoxynivalenol at 2.8 ml/L (reference value: 1.2 ppm)
# [43] = test system: Fusarium graminearum; assay: Antifungal activity against Fusarium graminearum infected in wheat plant assessed as contamination of wheat heads and kernels with deoxynivalenol at 5.5 ml/L (reference value: 1.2 ppm)
# [44] = test system: Fusarium graminearum; assay: Antifungal activity against Fusarium graminearum infected in wheat plant assessed as contamination of wheat heads and kernels with deoxynivalenol at 4 ml/L (reference value: 1.2 ppm)
# [45] = test system: Fusarium graminearum; assay: Antifungal activity against Fusarium graminearum infected in wheat plant assessed as contamination of wheat heads and kernels with deoxynivalenol at 8 ml/L (reference value: 1.2 ppm)
smiles,measurement,setting,value
CCCCCCCCO[C@@H]1[C@@H](N)[C@@H](O[C@H]2[C@H](O)[C@@H](O[C@H]3O[C@H](CO)[C@@H](O)[C@H](O)[C@H]3O)[C@H](N)C[C@@H]2N)O[C@H](CN)[C@H]1O,MIC,[1],> 500 µg/mL
CCCCCCCCCOC[C@H]1O[C@H](O[C@@H]2[C@@H](O)[C@H](O[C@H]3O[C@H](CN)[C@@H](O)[C@H](O)[C@H]3O)[C@@H](N)C[C@H]2N)[C@H](O)[C@@H](N)[C@@H]1OCCCCCCCCC,MIC,[2],500 µg/mL
same,MIC,[3],125 µg/mL
same,MIC,[4],16 µg/mL
same,MIC,[5],8 µg/mL
CCCCCCCO[C@H]1[C@H](N)[C@@H](O)[C@@H](O[C@@H]2[C@@H](O)[C@H](O[C@H]3O[C@H](CN)[C@@H](O)[C@H](O)[C@H]3O)[C@@H](N)C[C@H]2N)O[C@@H]1CO,MIC,[2],> 500 µg/mL
same,MIC,[3],125 µg/mL
same,MIC,[4],≥ 250 µg/mL
same,MIC,[5],125 µg/mL
"CCCCCCCCO[C@@H]1[C@@H](O)[C@H](O)[C@H](O[C@H]2[C@H](O)[C@@H](O[C@@H]3O[C@@H](CN)[C@H](O)[C@@H](O)[C@@H]3N)[C@H](N)C[C@@H]2N)O[C@H]1CO (single isomer, unassigned)",MIC,[1],7.8 µg/mL
CCCCCCOC[C@@H]1O[C@@H](O[C@@H]2[C@@H](O)[C@H](O[C@@H]3O[C@@H](CN)[C@H](O)[C@@H](O)[C@@H]3N)[C@@H](N)C[C@H]2N)[C@@H](O)[C@H](O)[C@H]1O (stereo in doubt),MIC,[1],125 µg/mL
CCCCCCCCOC[C@@H]1O[C@@H](O[C@@H]2[C@@H](O)[C@H](O[C@@H]3O[C@@H](CN)[C@H](O)[C@@H](O)[C@@H]3N)[C@@H](N)C[C@H]2N)[C@@H](O)[C@H](O)[C@H]1O (stereo in doubt),MIC,[1],31.3 µg/mL
NC[C@H]1O[C@H](O[C@H]2[C@H](O)[C@@H](O[C@H]3O[C@H](CO)[C@@H](O)[C@H](N)[C@H]3O)[C@H](N)C[C@@H]2N)[C@H](N)[C@@H](O)[C@@H]1O [BEKANAMYCIN],MIC,[6],1.95 µg/mL
same,MIC,[7],< 0.98 µg/mL
same,MIC,[8],1.95 µg/mL
same,MIC,[9],< 0.98 µg/mL
same,MIC,[10],1.95 µg/mL
same,MIC,[11],1.95 µg/mL
same,MIC,[12],> 250 µg/mL
same,MIC,[13],> 250 µg/mL
same,MIC,[14],> 250 µg/mL
same,MIC,[1],> 250 µg/mL
same,MIC,[15],> 250 µg/mL
OC(Cn1cncn1)(Cn1cncn1)c1ccc(F)cc1F [FLUCONAZOLE],MIC,[16],> 0.195 µg/mL
same,MIC,[17],1.56 µg/mL
same,MIC,[18],1.56 µg/mL
same,MIC,[19],1.56 µg/mL
same,MIC,[20],> 0.78 µg/mL
same,MIC,[21],> 25 µg/mL
same,MIC,[22],25 µg/mL
same,MIC,[23],> 200 µg/mL
same,MIC,[24],1.56 µg/mL
same,MIC,[25],> 25 µg/mL
same,MIC,[26],> 12.5 µg/mL
same,MIC,[27],> 16 µg/mL
same,MIC,[28],0.12 µg/mL
same,MIC,[29],> 200 µg/mL
same,MIC,[30],> 25 µg/mL
same,MIC,[31],> 2 µg/mL
same,MIC,[32],> 12.5 µg/mL
same,MIC,[33],> 25 µg/mL
CCC(C)n1ncn(-c2ccc(N3CCN(c4ccc(OCC5COC(Cn6cncn6)(c6ccc(Cl)cc6Cl)O5)cc4)CC3)cc2)c1=O (stereo not given) [ITRACONAZOLE],MIC,[16],0.37 µg/mL
same,MIC,[17],1.56 µg/mL
same,MIC,[18],0.06 µg/mL
same,MIC,[34],0.125 to 0.8 µg/mL
same,MIC,[19],0.2 µg/mL
same,MIC,[20],0.12 µg/mL
same,MIC,[21],> 25 µg/mL
same,MIC,[22],0.75 µg/mL
same,MIC,[23],> 64 µg/mL
same,MIC,[24],> 2 µg/mL
same,MIC,[25],16 to 32 µg/mL
same,MIC,[26],8 to 16 µg/mL
same,MIC,[27],0.5 µg/mL
same,MIC,[28],0.015 µg/mL
same,MIC,[35],0.125 µg/mL
NC[C@H]1O[C@H](O[C@H]2[C@H](O)[C@@H](O[C@H]3O[C@H](CO)[C@@H](O)[C@H](N)[C@H]3O)[C@H](N)C[C@@H]2N)[C@H](O)[C@@H](O)[C@@H]1O [KANAMYCIN],MIC,[16],> 250 µg/mL
same,MIC,[36],1.95 µg/mL
same,MIC,[37],< 0.98 µg/mL
same,MIC,[38],1.95 µg/mL
same,MIC,[17],> 125 µg/mL
same,MIC,[18],> 125 µg/mL
same,MIC,[34],> 250 µg/mL
same,MIC,[19],> 250 µg/mL
same,MIC,[20],> 250 µg/mL
same,MIC,[21],> 250 µg/mL
same,MIC,[22],> 250 µg/mL
same,MIC,[23],> 500 µg/mL
same,MIC,[24],> 250 µg/mL
same,MIC,[25],> 250 µg/mL
same,MIC,[26],> 250 µg/mL
same,MIC,[28],> 250 µg/mL
same,MIC,[39],> 125 µg/mL
same,MIC,[40],> 250 µg/mL
same,MIC,[35],> 250 µg/mL
same,MIC,[41],> 250 µg/mL
OC(Cc1ccccc1Cl)(Cn1nc[nH]c1=S)C1(Cl)CC1 (stereo not given) [PROTHIOCONAZOLE],Activity,[42],1.1 ppm
same,Activity,[43],0.7 ppm
COC(=O)N(OC)c1ccccc1COc1ccn(-c2ccc(Cl)cc2)n1 [PYRACLOSTROBIN],Activity,[44],1.3 ppm
same,Activity,[45],1.2 ppm
